In ChEMBL document CHEMBL1137662, “Effect of oral treatment with hexadecyloxypropyl-[(S)-9-(3-hydroxy-2- phosphonylmethoxypropyl)adenine] [(S)-HPMPA] or octadecyloxyethyl-(S)-HPMPA on cowpox or vaccinia virus infections in mice” (Antimicrob Agents Chemother, 2007):

Assays:
[1] = system: Cowpox virus; assay: Antiviral activity against Cowpox virus Brighton infected BALB/c mouse assessed as mortality at 3 mg/kg, po treated for 5 days after 48 hrs of viral inoculation; format: functional, Cowpox virus (Brighton Red)
[2] = system: Cowpox virus; assay: Antiviral activity against Cowpox virus Brighton infected BALB/c mouse assessed as mortality at 10 mg/kg, po treated for 5 days after 48 hrs of viral inoculation; format: functional, Cowpox virus (Brighton Red)
[3] = Selectivity index, ratio of CC50 for HFF cells to EC50 for Cowpox virus Brighton; format: toxicity, cell-based; settings: human, read-out: Ratio CC50/EC50
[4] = Selectivity index, ratio of CC50 for HFF cells to EC50 for Vaccinia virus WR; format: toxicity, cell-based; settings: human, read-out: Ratio CC50/EC50
[5] = system: Cowpox virus; assay: Antiviral activity against Cowpox virus Brighton in HFF cells assessed as reduction of viral replication after 3 days; format: functional, organism-based, Cowpox virus (Brighton Red); settings: 72 h
[6] = system: Vaccinia virus; assay: Antiviral activity against Vaccinia virus WR in HFF cells assessed as reduction of viral replication after 3 days; format: functional, organism-based; settings: Orthopoxvirus vaccinia, 72 h
[7] = system: Vaccinia virus; assay: Antiviral activity against Vaccinia virus Copenhagen in HFF cells assessed as reduction of viral replication after 3 days; format: functional, organism-based; settings: Orthopoxvirus vaccinia, 72 h
[8] = Selectivity index, ratio of CC50 for HFF cells to EC50 for Vaccinia virus Copenhagen; format: toxicity, cell-based; settings: human, read-out: Ratio CC50/EC50
[9] = Cytotoxicity against HFF cells after 7 days; format: cell-based; settings: human
[10] = system: Cowpox virus; assay: Antiviral activity against Cowpox virus Brighton infected BALB/c mouse assessed as log reduction of viral titer per gram of liver at 30 mg/kg, po treated for 5 days after 24 hrs of viral inoculation; format: functional, Cowpox virus (Brighton Red)
[11] = system: Cowpox virus; assay: Antiviral activity against Cowpox virus Brighton infected BALB/c mouse assessed as log reduction of viral titer per gram of spleen at 30 mg/kg, po treated for 5 days after 24 hrs of viral inoculation; format: functional, Cowpox virus (Brighton Red)
[12] = system: Cowpox virus; assay: Antiviral activity against Cowpox virus Brighton infected BALB/c mouse assessed as log reduction of viral titer per gram of kidney at 30 mg/kg, po treated for 5 days after 24 hrs of viral inoculation; format: functional, Cowpox virus (Brighton Red)
[13] = system: Cowpox virus; assay: Toxicity in Cowpox virus Brighton infected BALB/c mouse assessed as survival at 30 mg/kg, po treated for 5 days after 24 hrs of viral inoculation; format: functional, organism-based; design: dose 30 mg/kg; settings: Cowpox virus (Brighton Red)
[14] = system: Mus musculus; assay: Toxicity in BALB/c mouse at 30 mg/kg, po; format: organism-based; design: dose 30 mg/kg, route oral; settings: in vivo
[15] = system: Vaccinia virus; assay: Toxicity in Vaccinia virus WR infected BALB/c mouse assessed as survival at 30 mg/kg, po treated for 5 days after 24 hrs of viral inoculation; format: functional, organism-based; design: dose 30 mg/kg; settings: Orthopoxvirus vaccinia
[16] = system: Vaccinia virus; assay: Antiviral activity against Vaccinia virus WR infected BALB/c mouse assessed as log reduction of viral titer per gram of kidney at 30 mg/kg, po treated for 5 days after 24 hrs of viral inoculation; format: functional, Orthopoxvirus vaccinia
[17] = system: Vaccinia virus; assay: Antiviral activity against Vaccinia virus WR infected BALB/c mouse assessed as log reduction of viral titer per gram of spleen at 30 mg/kg, po treated for 5 days after 24 hrs of viral inoculation; format: functional, Orthopoxvirus vaccinia
[18] = system: Vaccinia virus; assay: Antiviral activity against Vaccinia virus WR infected BALB/c mouse assessed as log reduction of viral titer per gram of liver at 30 mg/kg, po treated for 5 days after 24 hrs of viral inoculation; format: functional, Orthopoxvirus vaccinia
[19] = system: Cowpox virus; assay: Antiviral activity against Cowpox virus Brighton infected BALB/c mouse assessed as mean death day at 10 mg/kg, po treated for 5 days after 72 hrs of viral inoculation; format: functional, Cowpox virus (Brighton Red)
[20] = system: Cowpox virus; assay: Antiviral activity against Cowpox virus Brighton infected BALB/c mouse assessed as mean death day at 30 mg/kg, po treated for 5 days after 72 hrs of viral inoculation; format: functional, Cowpox virus (Brighton Red)
[21] = system: Cowpox virus; assay: Antiviral activity against Cowpox virus Brighton infected BALB/c mouse assessed as mean death day at 3 mg/kg, po treated for 5 days after 48 hrs of viral inoculation; format: functional, Cowpox virus (Brighton Red)
[22] = system: Cowpox virus; assay: Antiviral activity against Cowpox virus Brighton infected BALB/c mouse assessed as mean death day at 10 mg/kg, po treated for 5 days after 48 hrs of viral inoculation; format: functional, Cowpox virus (Brighton Red)
[23] = system: Cowpox virus; assay: Antiviral activity against Cowpox virus Brighton infected BALB/c mouse assessed as mean death day at 3 mg/kg, po treated for 5 days after 24 hrs of viral inoculation; format: functional, Cowpox virus (Brighton Red)
[24] = system: Cowpox virus; assay: Antiviral activity against Cowpox virus Brighton infected BALB/c mouse assessed as mean death day at 10 mg/kg, po treated for 5 days after 24 hrs of viral inoculation; format: functional, Cowpox virus (Brighton Red)
[25] = system: Cowpox virus; assay: Antiviral activity against Cowpox virus Brighton infected BALB/c mouse assessed as mean death day at 30 mg/kg, po treated for 5 days after 24 hrs of viral inoculation; format: functional, Cowpox virus (Brighton Red)
[26] = system: Cowpox virus; assay: Antiviral activity against Cowpox virus Brighton infected BALB/c mouse assessed as mortality at 30 mg/kg, po treated for 5 days after 48 hrs of viral inoculation; format: functional, Cowpox virus (Brighton Red)
[27] = system: Cowpox virus; assay: Antiviral activity against Cowpox virus Brighton infected BALB/c mouse assessed as mortality at 3 mg/kg, po treated for 5 days after 24 hrs of viral inoculation; format: functional, Cowpox virus (Brighton Red)
[28] = system: Vaccinia virus; assay: Antiviral activity against Vaccinia virus WR infected BALB/c mouse assessed as mean death day at 3 mg/kg, po treated for 5 days after 72 hrs of viral inoculation; format: functional, Orthopoxvirus vaccinia
[29] = system: Vaccinia virus; assay: Antiviral activity against Vaccinia virus WR infected BALB/c mouse assessed as mean death day at 10 mg/kg, po treated for 5 days after 72 hrs of viral inoculation; format: functional, Orthopoxvirus vaccinia
[30] = system: Vaccinia virus; assay: Antiviral activity against Vaccinia virus WR infected BALB/c mouse assessed as mean death day at 30 mg/kg, po treated for 5 days after 72 hrs of viral inoculation; format: functional, Orthopoxvirus vaccinia
[31] = system: Vaccinia virus; assay: Antiviral activity against Vaccinia virus WR infected BALB/c mouse assessed as mean death day at 10 mg/kg, po treated for 5 days after 48 hrs of viral inoculation; format: functional, Orthopoxvirus vaccinia
[32] = system: Vaccinia virus; assay: Antiviral activity against Vaccinia virus WR infected BALB/c mouse assessed as mean death day at 30 mg/kg, po treated for 5 days after 48 hrs of viral inoculation; format: functional, Orthopoxvirus vaccinia
[33] = system: Vaccinia virus; assay: Antiviral activity against Vaccinia virus WR infected BALB/c mouse assessed as mean death day at 3 mg/kg, po treated for 5 days after 24 hrs of viral inoculation; format: functional, Orthopoxvirus vaccinia
[34] = system: Vaccinia virus; assay: Antiviral activity against Vaccinia virus WR infected BALB/c mouse assessed as mean death day at 30 mg/kg, po treated for 5 days after 24 hrs of viral inoculation; format: functional, Orthopoxvirus vaccinia
[35] = system: Vaccinia virus; assay: Antiviral activity against Vaccinia virus WR infected BALB/c mouse assessed as mortality at 10 mg/kg, po treated for 5 days after 72 hrs of viral inoculation; format: functional, Orthopoxvirus vaccinia
[36] = system: Vaccinia virus; assay: Antiviral activity against Vaccinia virus WR infected BALB/c mouse assessed as mortality at 30 mg/kg, po treated for 5 days after 72 hrs of viral inoculation; format: functional, Orthopoxvirus vaccinia
[37] = system: Vaccinia virus; assay: Antiviral activity against Vaccinia virus WR infected BALB/c mouse assessed as mortality at 3 mg/kg, po treated for 5 days after 48 hrs of viral inoculation; format: functional, Orthopoxvirus vaccinia
[38] = system: Vaccinia virus; assay: Antiviral activity against Vaccinia virus WR infected BALB/c mouse assessed as mortality at 10 mg/kg, po treated for 5 days after 48 hrs of viral inoculation; format: functional, Orthopoxvirus vaccinia
[39] = system: Vaccinia virus; assay: Antiviral activity against Vaccinia virus WR infected BALB/c mouse assessed as mortality at 30 mg/kg, po treated for 5 days after 48 hrs of viral inoculation; format: functional, Orthopoxvirus vaccinia
[40] = system: Vaccinia virus; assay: Antiviral activity against Vaccinia virus WR infected BALB/c mouse assessed as mortality at 3 mg/kg, po treated for 5 days after 24 hrs of viral inoculation; format: functional, Orthopoxvirus vaccinia
[41] = system: Vaccinia virus; assay: Antiviral activity against Vaccinia virus WR infected BALB/c mouse assessed as mortality at 10 mg/kg, po treated for 5 days after 24 hrs of viral inoculation; format: functional, Orthopoxvirus vaccinia

## CCCCCCCCCCCCCCCCOCCCOP(=O)(O)CO[C@H](CO)Cn1cnc2c(N)ncnc21
[1]
  Activity: 87%
[2]
  Activity: 27%
[3]
  selectivity ratio: 485
[4]
  selectivity ratio: 32
[5]
  EC50: 20 nM
[6]
  EC50: 300 nM
[7]
  EC50: 10 nM
[8]
  selectivity ratio: 970
[9]
  CC50 at 168 h: 9700 nM
[10]
  log10PFU: 2.5 g
[11]
  log10PFU: 2.5 g
[12]
  log10PFU: 2.5 g
[13]
  Activity: Not toxic
[14]
  Activity: Non-toxic
[15]
  Activity: Not toxic
[16]
  log10PFU: 4 g
[17]
  log10PFU: 4 g
[18]
  log10PFU: 4 g
[19]
  Activity: 12.3 days
[20]
  Activity: 6.5 days
[21]
  Activity: 12.7 days
[22]
  Activity: 12.3 days
[23]
  Activity: 11.4 days
[24]
  Activity: 13.8 days
[25]
  Activity: 15 days
[26]
  Activity: 13%
[27]
  Activity: 93%
[28]
  Activity: 7.8 days
[29]
  Activity: 9.1 days
[30]
  Activity: 8 days
[31]
  Activity: 8 days
[32]
  Activity: 11 days
[33]
  Activity: 7 days
[34]
  Activity: 7 days
[35]
  Activity: 53%
[36]
  Activity: 7%
[37]
  Activity: 33%
[38]
  Activity: 13%
[39]
  Activity: 7%
[40]
  Activity: 27%
[41]
  Activity: 0%

## CCCCCCCCCCCCCCCCCCOCCOP(=O)(O)CO[C@H](CO)Cn1cnc2c(N)ncnc21
[1]
  Activity: 80%
[2]
  Activity: 20%
[3]
  selectivity ratio: 75
[4]
  selectivity ratio: 15
[5]
  EC50: 20 nM
[6]
  EC50: 100 nM
[7]
  EC50: 10 nM
[8]
  selectivity ratio: 150
[9]
  CC50 at 168 h: 1500 nM
[10]
  log10PFU: 2.5 g
[11]
  log10PFU: 2.5 g
[12]
  log10PFU: 2.5 g
[13]
  Activity: Not toxic
[14]
  Activity: Non-toxic
[15]
  Activity: Not toxic
[16]
  log10PFU: 4 g
[17]
  log10PFU: 4 g
[18]
  log10PFU: 4 g
[19]
  Activity: 12.2 days
[20]
  Activity: 10.6 days
[21]
  Activity: 10.6 days
[22]
  Activity: 11 days
[23]
  Activity: 13.7 days
[24]
  Activity: 14 days
[25]
  Activity: 13 days
[26]
  Activity: 13%
[27]
  Activity: 60%
[28]
  Activity: 9 days
[29]
  Activity: 9 days
[30]
  Activity: 10.5 days
[31]
  Activity: 10.3 days
[32]
  Activity: 9.7 days
[33]
  Activity: 8.8 days
[34]
  Activity: 8.3 days
[35]
  Activity: 33%
[36]
  Activity: 73%
[37]
  Activity: 53%
[38]
  Activity: 20%
[39]
  Activity: 40%
[40]
  Activity: 67%
[41]
  Activity: 0%
